Calls of active or inactive are those of the source. No cut-off for these calls is given here.
Legend:
[1] = Plasma concentration in Swiss outbred mouse at 30 mg/kg, po at 24 hrs by LC-MS analysis; format: ADME, organism-based; set-up: dose 30 mg/kg, route oral
[2] = AUC (0 to 24 hrs) in mouse at 30 mg/kg, po by LC-MS analysis; format: ADME, organism-based; set-up: time < 24 hr, dose 30 mg/kg, route oral; conditions: plasma
[3] = Lipophilicity, log D of the compound at pH 7.4; format: physicochemical; conditions: buffer
[4] = Dissociation constant, pKa of the compound; format: physicochemical
[5] = Partition coefficient, log P of the compound; format: physicochemical; conditions: octanol/water
[6] = test system: Plasmodium falciparum; test: Antimalarial activity against chloroquine-sensitive Plasmodium falciparum NF54 infected mouse assessed as reduction in parasitemia at 30 mg/kg, po measured on day 3 postinfection relative to control; format: functional; set-up: scale not given: the % may be the effect or the level left
[7] = test system: Plasmodium falciparum; test: animal or person; conditions: NF54
[8] = test system: Plasmodium falciparum; test: microbe, parasite or virus in culture; conditions: K1
[9] = test system: Plasmodium berghei (mouse); test: Antimalarial activity against chloroquine-sensitive Plasmodium berghei infected mouse assessed as survival at 30 mg/kg, po
[10] = test system: Plasmodium berghei (mouse); test: Antimalarial activity against chloroquine-sensitive Plasmodium berghei infected mouse assessed as cured animal at 30 mg/kg, po measured on day 30 postinfection
[11] = Half life in mouse whole blood; format: ADME, tissue-based
[12] = Intrinsic clearance in mouse liver microsomes at 1 uM after 60 mins by LC-MS analysis; format: ADME, Microsome; conditions: read-out: CLH

SMILES	concentration at 24 h [1]	AUC(0-t) at 24 h [2]	logD [3]	pKa [4]	logP [5]	Activity [6]	IC50 [7]	IC50 [8]	Survival [9]	Activity [10]	half-life [11]	microsomal CLint at 1 µM [12]
c1cc([C@H]2CC[C@]3(CC2)OO[C@]2(O3)C3CC4CC(C3)CC2C4)ccc1OCCN1CCOCC1 [ARTEFENOMEL]	> 200 ng/mL	52.7 µM·h	4.53	6.81	4.63	>99.9%	3.4 nM	2.8 nM	>30 days	Active		
CC(C)(N)CNC(=O)CC1CCC2(CC1)COC1(OO2)C2CC3CC(C2)CC1C3 (configuration not stated)	> 10 ng/mL	22.4 µM·h	1.05	9.05	2.44	99.1%	29 nM	19 nM	15 days	inactive	138 min	< 7 µL/min/mg
CC(C)(N)CNC(=O)CC1CCC2(CC1)OOC1(OO2)C2CC3CC(C2)CC1C3 (configuration not stated)	< 1 ng/mL	13.5 µM·h	0.87	9.05	2.26	99.5%	1.7 nM	0.9 nM	9 days	inactive	54.6 min	14 µL/min/mg
O[C@@H](c1cc(C(F)(F)F)nc2c(C(F)(F)F)cccc12)[C@H]1CCCCN1 (relative stereo) [(S,R)-MEFLOQUINE]						99.6%	14 nM	7.2 nM	22 days	inactive		
CCN(CC)CCCC(C)Nc1ccnc2cc(Cl)ccc12 (configuration not stated) [CHLOROQUINE]									10 days	inactive		
C[C@H]1[C@H](OC(=O)CCC(=O)O)O[C@@H]2O[C@@]3(C)CC[C@H]4[C@H](C)CC[C@@H]1[C@@]24OO3 [ARTESUNATE]						92%			9 days	inactive		
CC(C)(N)CNC(=O)C[C@H]1CC[C@]2(CC1)OO[C@]1(O2)C2CC3CC(C2)CC1C3 [OZ277]	< 1 ng/mL	5.13 µM·h	0.69	9.05	2.07	99.9%			11 days	inactive	55.8 min	17 µL/min/mg
CC(C)(N)CNC(=O)C[C@H]1CC[C@@]2(CC1)C[C@@]1(OO2)C2CC3CC(C2)CC1C3			1.83	9.05	3.21		440 nM	170 nM			60 min	12 µL/min/mg
c1cc([C@H]2CC[C@@]3(CC2)C[C@@]2(OO3)C3CC4CC(C3)CC2C4)ccc1OCCN1CCOCC1			5.56	6.82	5.66		1200 nM	370 nM				28 µL/min/mg

Source: ChEMBL document CHEMBL2321701 (J Med Chem, 2013)
